Results on one compound are retold here after patent US4446149A, “Medicine for treatment of cervical erosion” (priority 1981, dated 1984).

Entries after “also recorded” stand apart in the source; their conditions may differ. Read-outs that look alike come from different tables or passages of the source.

Broadly, the LD50 is the dose at which mortality reaches 50%.

Data set [1] can be described thus: Acute toxicity of L-carnosine (peritoneal and oral). It counts as in vivo. The settings on record: mouse, in vivo; for LD50 at 72 h: dd strain male mice. How it is done: (§1) […] LD50 was computed by the Van der Waerden method based on the number of dead mice after 72 hours. In the examination, L-carnosine was diluted with a physiological saline so that its administration concentration would be 0.1-0.3 ml/10 g.

A further data set has as its system dd strain male mice. Described as above. It counts as in vivo. On the procedure: as §1
For data set [2] the following is noted: cited from earlier work.
For data set [3] the following is noted: cited from earlier work. This is another data set of the same source.
The subject of another data set is carnosinase. Conditions: taken into the body; with the aid of carnosinase; cited from earlier work.
Where [4] appears, read: peritoneal 15,000 mg/kg, after about 30 minutes.

For `NCCC(=O)N[C@@H](Cc1cnc[nH]1)C(=O)O` [L-carnosine, β-alanyl-L-histidine], the mortality at 12 h in data set [1] (15000 mg/kg, oral 15,000 mg/kg, after 12 hours, read-out: mice died) is 10%. The mortality at 2 h in data set [1] (ip, 15000 mg/kg, peritoneal 15,000 mg/kg, after 2 hours, read-out: experimental animals died) is 80%. Besides, the LD50 at 72 h in data set [1] (ip, peritoneal, Van der Waerden method, 72 hours (75-hour value elsewhere in the source), read-out: LD50 at 95% level of confidence) is 9090 mg/kg; in data set [1] (oral, (the minimum lethal dose), read-out: LD50), over 14900 mg/kg. Also, the “toxicity (overall)” value in the data set with dd strain male mice (acute toxicity test, dd strain male mice) was “quite low toxicity”. The “appreciable effect (symptoms)” value in the data set with dd strain male mice (oral 15,000 mg/kg) is reported as “did not show any appreciable effect”. In the data set on dd strain male mice (peritoneal 15,000 mg/kg), the “symptoms when further advanced” value was “the animals repeated horizontal rollings and upon contact stimulation the reflex became hyperreactive with an attendant spasm, leading to ultimate death”. The “symptoms: raising of the tails and clonospasm” value with dd strain male mice (peritoneal 15,000 mg/kg, about 30 minutes after administration) is “seen in as many as half of the experimental animals”. Further, the experimental animals died entry in the data set with dd strain male mice (peritoneal 15,000 mg/kg, after 1 hour and 30 minutes) is listed as “Half”; in the data set on dd strain male mice (peritoneal 15,000 mg/kg, after 5 hours), “all of the experimental animals died”. Also, in the data set with dd strain male mice (setting [4]), the “symptoms: frontal or escape reflexes” value is reported as “no frontal or escape reflexes”. Further, the “symptoms: spontaneous movement and respiration” value with dd strain male mice (setting [4]) is “a reduction in spontaneous movement accompanied by an irregular or decreased number of respirations”. For the same compound, the LD100 in the data set with dd strain male mice (peritoneal, mice) is reported as 15,000 mg/kg. Besides, the solubility in water result in data set [2] is on record as “easily soluble in water; also recorded: readily soluble in water”. For the same compound, the “pH value of its aqueous solution” value in data set [3] is given as 8.0-8.5. Besides, the metabolism result in the data set with carnosinase is “decomposed, with the aid of carnosinase, into L-histidine and β-alanine”.
